Assay results as given in ChEMBL document CHEMBL5291721, “A preclinical secondary pharmacology resource illuminates target-adverse drug reaction associations of marketed drugs” (Nat Commun, 2023).

Assays:
Histamine H3 receptor = Histamine H3 receptor (Homo sapiens, UniProt Q9Y5N1)
[1] = molecular target: T1, Alpha-1A adrenergic receptor (Homo sapiens, UniProt P35348); format: functional, cell-based
T1 sequence (P35348 whole entry): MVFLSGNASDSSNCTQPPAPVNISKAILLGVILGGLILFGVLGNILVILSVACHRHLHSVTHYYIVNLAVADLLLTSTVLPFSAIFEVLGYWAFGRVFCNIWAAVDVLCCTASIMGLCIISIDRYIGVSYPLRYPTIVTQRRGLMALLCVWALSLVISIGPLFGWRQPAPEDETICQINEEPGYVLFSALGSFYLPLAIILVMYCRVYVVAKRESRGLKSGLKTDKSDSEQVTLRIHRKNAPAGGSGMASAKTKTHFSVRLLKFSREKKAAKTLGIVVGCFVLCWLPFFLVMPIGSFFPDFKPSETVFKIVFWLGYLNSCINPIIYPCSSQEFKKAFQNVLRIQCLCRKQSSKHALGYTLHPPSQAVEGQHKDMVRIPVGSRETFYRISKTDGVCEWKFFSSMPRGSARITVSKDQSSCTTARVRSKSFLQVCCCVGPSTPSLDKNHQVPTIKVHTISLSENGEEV

D(1A) dopamine receptor = D(1A) dopamine receptor (Homo sapiens, UniProt P21728)
[2] = molecular target: T2, Alpha-2A adrenergic receptor (Homo sapiens, UniProt P08913)
T2 sequence (P08913 whole entry): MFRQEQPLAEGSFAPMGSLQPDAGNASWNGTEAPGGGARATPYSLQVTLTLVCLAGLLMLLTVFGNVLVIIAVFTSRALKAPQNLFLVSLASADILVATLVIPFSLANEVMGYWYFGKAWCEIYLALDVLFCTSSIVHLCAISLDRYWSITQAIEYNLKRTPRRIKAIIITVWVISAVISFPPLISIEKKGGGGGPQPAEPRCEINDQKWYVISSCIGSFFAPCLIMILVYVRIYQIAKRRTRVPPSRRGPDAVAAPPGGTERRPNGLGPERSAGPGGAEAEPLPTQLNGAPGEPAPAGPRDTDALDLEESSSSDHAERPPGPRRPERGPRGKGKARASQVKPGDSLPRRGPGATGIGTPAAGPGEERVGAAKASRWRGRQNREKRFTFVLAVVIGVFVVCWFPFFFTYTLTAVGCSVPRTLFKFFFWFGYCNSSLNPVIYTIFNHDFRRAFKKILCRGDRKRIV

[3] = molecular target: T3, Muscarinic acetylcholine receptor M1 (Homo sapiens, UniProt P11229); format: functional, cell-based
T3 sequence (P11229 whole entry): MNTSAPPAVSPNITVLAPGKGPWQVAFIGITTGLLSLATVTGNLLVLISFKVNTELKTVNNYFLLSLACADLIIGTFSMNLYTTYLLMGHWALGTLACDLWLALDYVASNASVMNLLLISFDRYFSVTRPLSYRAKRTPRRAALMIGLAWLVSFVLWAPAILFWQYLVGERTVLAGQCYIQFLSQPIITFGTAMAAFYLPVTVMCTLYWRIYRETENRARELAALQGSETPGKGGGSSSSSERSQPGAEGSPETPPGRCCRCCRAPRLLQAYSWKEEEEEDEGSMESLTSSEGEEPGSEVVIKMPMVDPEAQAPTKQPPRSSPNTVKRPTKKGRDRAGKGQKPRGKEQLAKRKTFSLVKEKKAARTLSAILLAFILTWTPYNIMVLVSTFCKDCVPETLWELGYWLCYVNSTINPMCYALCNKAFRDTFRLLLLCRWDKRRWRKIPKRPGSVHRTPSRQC

[4] = molecular target: T3, Muscarinic acetylcholine receptor M1; format: functional, cell-based; remark: listed apart in the source
[5] = molecular target: Gamma-aminobutyric acid receptor subunit alpha-1/alpha-2/beta-2/gamma-2 (Homo sapiens, UniProt P14867+P18507+P47869+P47870); format: protein-complex assay
[6] = molecular target: Gamma-aminobutyric acid receptor subunit alpha-1 (Rattus norvegicus, UniProt P62813)
Further: assay procedure not described here.

D(1A) dopamine receptor, sequence (P21728 whole entry): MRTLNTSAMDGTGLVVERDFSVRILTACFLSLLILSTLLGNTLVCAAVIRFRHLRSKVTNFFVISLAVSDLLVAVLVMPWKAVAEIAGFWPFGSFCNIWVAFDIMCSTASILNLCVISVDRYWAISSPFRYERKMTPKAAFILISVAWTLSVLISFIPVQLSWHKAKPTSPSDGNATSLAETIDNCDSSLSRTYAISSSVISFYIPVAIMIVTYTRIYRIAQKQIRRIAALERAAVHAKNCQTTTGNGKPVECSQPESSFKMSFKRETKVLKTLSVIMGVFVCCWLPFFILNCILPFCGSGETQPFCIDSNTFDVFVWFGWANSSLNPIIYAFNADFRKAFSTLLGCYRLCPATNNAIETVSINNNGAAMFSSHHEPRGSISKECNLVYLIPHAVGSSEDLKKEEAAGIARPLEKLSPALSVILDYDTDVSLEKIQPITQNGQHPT
Gamma-aminobutyric acid receptor subunit alpha-1, sequence (P62813 whole entry): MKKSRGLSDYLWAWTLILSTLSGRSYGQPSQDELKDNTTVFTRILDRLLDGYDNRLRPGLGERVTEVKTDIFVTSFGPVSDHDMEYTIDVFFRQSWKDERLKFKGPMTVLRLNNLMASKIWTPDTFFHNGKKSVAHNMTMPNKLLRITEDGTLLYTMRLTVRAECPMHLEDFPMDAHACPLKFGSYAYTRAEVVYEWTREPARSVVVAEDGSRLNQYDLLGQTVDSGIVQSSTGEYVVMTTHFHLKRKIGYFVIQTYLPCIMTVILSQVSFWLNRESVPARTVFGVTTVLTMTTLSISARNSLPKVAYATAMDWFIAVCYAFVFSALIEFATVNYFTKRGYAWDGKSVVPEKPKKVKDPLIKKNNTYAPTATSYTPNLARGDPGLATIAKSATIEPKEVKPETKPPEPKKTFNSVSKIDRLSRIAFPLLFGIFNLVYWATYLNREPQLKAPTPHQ
Histamine H3 receptor, sequence (Q9Y5N1 whole entry): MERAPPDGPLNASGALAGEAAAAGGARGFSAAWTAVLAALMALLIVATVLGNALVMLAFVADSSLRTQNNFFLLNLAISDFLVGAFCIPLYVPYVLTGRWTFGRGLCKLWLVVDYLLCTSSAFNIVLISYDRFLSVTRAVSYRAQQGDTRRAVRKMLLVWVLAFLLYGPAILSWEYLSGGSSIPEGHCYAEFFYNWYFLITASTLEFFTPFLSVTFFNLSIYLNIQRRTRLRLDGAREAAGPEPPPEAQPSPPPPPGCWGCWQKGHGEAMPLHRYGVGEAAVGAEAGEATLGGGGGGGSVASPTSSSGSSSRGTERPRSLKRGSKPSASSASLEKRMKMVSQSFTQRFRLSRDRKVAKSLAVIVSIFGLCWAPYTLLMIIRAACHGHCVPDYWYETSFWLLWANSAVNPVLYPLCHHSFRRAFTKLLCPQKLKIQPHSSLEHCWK
Gamma-aminobutyric acid receptor subunit alpha-1/alpha-2/beta-2/gamma-2, sequence (P14867 whole entry): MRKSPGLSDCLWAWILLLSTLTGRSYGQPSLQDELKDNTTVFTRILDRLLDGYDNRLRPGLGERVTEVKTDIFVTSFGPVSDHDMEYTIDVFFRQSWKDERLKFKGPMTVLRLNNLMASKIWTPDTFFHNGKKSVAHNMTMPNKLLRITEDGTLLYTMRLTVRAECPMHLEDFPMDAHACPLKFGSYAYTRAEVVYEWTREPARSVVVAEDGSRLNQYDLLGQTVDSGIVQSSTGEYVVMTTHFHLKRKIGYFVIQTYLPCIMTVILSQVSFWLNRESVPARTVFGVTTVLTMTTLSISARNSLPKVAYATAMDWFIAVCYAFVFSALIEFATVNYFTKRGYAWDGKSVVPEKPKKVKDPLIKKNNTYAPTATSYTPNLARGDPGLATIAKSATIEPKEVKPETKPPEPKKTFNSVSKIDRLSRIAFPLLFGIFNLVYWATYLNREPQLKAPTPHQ
Gamma-aminobutyric acid receptor subunit alpha-1/alpha-2/beta-2/gamma-2, sequence (P47870 whole entry): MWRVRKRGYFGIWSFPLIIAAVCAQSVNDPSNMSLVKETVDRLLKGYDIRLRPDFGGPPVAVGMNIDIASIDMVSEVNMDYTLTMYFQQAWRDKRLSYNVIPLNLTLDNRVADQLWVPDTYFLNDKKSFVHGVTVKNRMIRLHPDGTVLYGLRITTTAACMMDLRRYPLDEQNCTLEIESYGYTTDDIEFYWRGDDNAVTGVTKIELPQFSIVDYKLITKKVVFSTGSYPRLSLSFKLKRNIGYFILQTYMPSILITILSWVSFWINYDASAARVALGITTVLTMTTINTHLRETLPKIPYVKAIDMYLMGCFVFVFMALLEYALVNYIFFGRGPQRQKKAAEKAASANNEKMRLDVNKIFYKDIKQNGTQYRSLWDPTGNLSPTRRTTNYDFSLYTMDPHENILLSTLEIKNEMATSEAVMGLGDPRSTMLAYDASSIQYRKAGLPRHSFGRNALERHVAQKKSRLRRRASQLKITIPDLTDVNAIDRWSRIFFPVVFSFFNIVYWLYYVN
Gamma-aminobutyric acid receptor subunit alpha-1/alpha-2/beta-2/gamma-2, sequence (P18507 whole entry): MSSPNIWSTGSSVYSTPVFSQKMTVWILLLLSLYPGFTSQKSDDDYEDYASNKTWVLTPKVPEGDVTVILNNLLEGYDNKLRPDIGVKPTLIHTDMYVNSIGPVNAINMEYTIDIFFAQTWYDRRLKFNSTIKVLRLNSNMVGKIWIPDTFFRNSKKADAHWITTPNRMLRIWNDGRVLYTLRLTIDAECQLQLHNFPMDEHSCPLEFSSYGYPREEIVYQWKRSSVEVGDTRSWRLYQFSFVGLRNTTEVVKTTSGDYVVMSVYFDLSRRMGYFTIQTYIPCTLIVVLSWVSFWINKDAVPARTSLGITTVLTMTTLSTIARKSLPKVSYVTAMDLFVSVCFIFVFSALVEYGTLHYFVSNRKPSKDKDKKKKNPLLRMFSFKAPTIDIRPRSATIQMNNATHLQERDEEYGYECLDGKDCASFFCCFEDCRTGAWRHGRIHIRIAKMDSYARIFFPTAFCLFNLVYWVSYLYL
Gamma-aminobutyric acid receptor subunit alpha-1/alpha-2/beta-2/gamma-2, sequence (P47869 whole entry): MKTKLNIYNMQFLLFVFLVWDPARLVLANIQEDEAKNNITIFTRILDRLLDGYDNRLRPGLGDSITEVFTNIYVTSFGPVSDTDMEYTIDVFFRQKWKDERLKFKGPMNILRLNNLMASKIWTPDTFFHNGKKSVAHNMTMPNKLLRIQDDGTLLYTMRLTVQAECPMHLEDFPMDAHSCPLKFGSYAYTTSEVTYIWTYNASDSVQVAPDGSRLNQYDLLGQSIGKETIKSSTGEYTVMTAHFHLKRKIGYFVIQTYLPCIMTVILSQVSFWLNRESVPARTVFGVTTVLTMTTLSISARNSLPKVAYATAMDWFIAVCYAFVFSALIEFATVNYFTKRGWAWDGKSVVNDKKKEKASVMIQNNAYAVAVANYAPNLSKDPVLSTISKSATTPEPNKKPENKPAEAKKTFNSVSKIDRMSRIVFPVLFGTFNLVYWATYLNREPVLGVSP

Q: What does the source list for `Nc1ccc(C(=O)NCC(=O)O)cc1` [AMINOHIPPURIC ACID]?
A: AC50 (Histamine H3 receptor): > 30 µM; AC50 [1]: > 30 µM; AC50 (D(1A) dopamine receptor): > 30 µM; AC50 [2]: > 30 µM; AC50 [3]: > 30 µM; AC50 [4]: > 30 µM; AC50 [5]: > 30 µM

Q: With `O=c1[nH]c(=O)n([C@H]2C[C@H](O)[C@@H](CO)O2)cc1/C=C/Br` [BRIVUDINE] as the molecule, how does the AC50 (Histamine H3 receptor) read?
A: The AC50 was over 30 µM.

Q: What about the AC50 [1] of the same molecule?
A: The AC50 was over 30 µM.

Q: And the AC50 (D(1A) dopamine receptor)?
A: Its AC50 is over 30 µM.

Q: And the AC50 [2]?
A: The AC50 was over 30 µM.

Q: What about the AC50 [3] of the same molecule?
A: The AC50 was over 30 µM.

Q: And the AC50 [4]?
A: The AC50 was over 30 µM.

Q: What about the AC50 [5] of the same molecule?
A: Its AC50 is over 30 µM.

Q: What does the source list for `Nc1ccn(C[C@@H](CO)OCP(=O)(O)O)c(=O)n1` [CIDOFOVIR]?
A: AC50 (Histamine H3 receptor): > 30 µM; AC50 [1]: > 30 µM; AC50 (D(1A) dopamine receptor): > 30 µM; AC50 [2]: > 30 µM; AC50 [3]: > 30 µM; AC50 [4]: > 30 µM; AC50 [5]: > 30 µM

Q: With `CCCCC(=O)O[C@H]1CC[C@H]2[C@@H]3CCc4cc(O)ccc4[C@H]3CC[C@]12C` [ESTRADIOL VALERATE] as the molecule, how does the AC50 (Histamine H3 receptor) read?
A: Its AC50 is over 30 µM.

Q: What about the AC50 [1] of the same molecule?
A: The AC50 was over 30 µM.

Q: What about the AC50 (D(1A) dopamine receptor) of the same molecule?
A: Its AC50 is over 30 µM.

Q: And the AC50 [2]?
A: Its AC50 is over 30 µM.

Q: What about the AC50 [3] of the same molecule?
A: Its AC50 is over 30 µM.

Q: What about the AC50 [4] of the same molecule?
A: The AC50 was 23.1 µM.

Q: What about the AC50 [5] of the same molecule?
A: The AC50 was over 10 µM.

Q: `CCn1c(=O)c2c(nc(/C=C/c3ccc(OC)c(OC)c3)n2C)n(CC)c1=O` [ISTRADEFYLLINE] was tested. Which AC50 (Histamine H3 receptor) did it give?
A: Its AC50 is over 30 µM.

Q: And the AC50 [1]?
A: Its AC50 is over 30 µM.

Q: What about the AC50 (D(1A) dopamine receptor) of the same molecule?
A: Its AC50 is over 30 µM.

Q: What about the AC50 [2] of the same molecule?
A: The AC50 was over 10 µM.

Q: And the AC50 [3]?
A: The AC50 was over 30 µM.

Q: And the AC50 [4]?
A: Its AC50 is over 30 µM.

Q: What about the AC50 [5] of the same molecule?
A: Its AC50 is over 30 µM.

Q: `CN1CCCC(CC2c3ccccc3Sc3ccccc32)C1` (stereo unspecified) [METHIXENE] was tested. Which AC50 (Histamine H3 receptor) did it give?
A: The AC50 was 20.3 µM.

Q: And the AC50 [1]?
A: Its AC50 is over 30 µM.

Q: What about the AC50 (D(1A) dopamine receptor) of the same molecule?
A: The AC50 was 2.03 µM.

Q: What about the AC50 [2] of the same molecule?
A: The AC50 was 4.82 µM.

Q: And the AC50 [3]?
A: The AC50 was over 30 µM.

Q: And the AC50 [4]?
A: Its AC50 is 0.0109 µM.

Q: What about the AC50 [5] of the same molecule?
A: Its AC50 is over 30 µM.

Q: How did the AC50 (Histamine H3 receptor) turn out when `NC(=O)N/N=C/c1ccc([N+](=O)[O-])o1` [NITROFURAZONE] was run?
A: The AC50 was over 30 µM.

Q: And the AC50 [1]?
A: Its AC50 is over 30 µM.

Q: What about the AC50 [6] of the same molecule?
A: The AC50 was over 30 µM.

Q: And the AC50 (D(1A) dopamine receptor)?
A: The AC50 was over 30 µM.

Q: And the AC50 [2]?
A: The AC50 was over 30 µM.

Q: What about the AC50 [3] of the same molecule?
A: Its AC50 is over 30 µM.

Q: And the AC50 [4]?
A: Its AC50 is over 30 µM.

Q: And the AC50 [5]?
A: The AC50 was over 30 µM.

Q: Which AC50 (Histamine H3 receptor) does the source give for `Cc1c(C(C)C)c(=O)n(-c2ccccc2)n1C` [PROPYPHENAZONE] here?
A: The AC50 was over 30 µM.

Q: And the AC50 [1]?
A: The AC50 was over 30 µM.

Q: And the AC50 (D(1A) dopamine receptor)?
A: The AC50 was over 30 µM.

Q: And the AC50 [2]?
A: The AC50 was over 30 µM.

Q: And the AC50 [3]?
A: Its AC50 is over 30 µM.

Q: What about the AC50 [4] of the same molecule?
A: Its AC50 is over 30 µM.

Q: And the AC50 [5]?
A: Its AC50 is over 30 µM.

Q: For `Cc1ncc(CO)c(CO)c1O` [PYRIDOXINE], which AC50 (Histamine H3 receptor) is on record?
A: Its AC50 is over 30 µM.

Q: And the AC50 [1]?
A: Its AC50 is over 30 µM.

Q: And the AC50 [6]?
A: The AC50 was over 30 µM.

Q: And the AC50 (D(1A) dopamine receptor)?
A: The AC50 was over 30 µM.

Q: What about the AC50 [2] of the same molecule?
A: The AC50 was over 30 µM.

Q: What about the AC50 [3] of the same molecule?
A: The AC50 was over 30 µM.

Q: What about the AC50 [4] of the same molecule?
A: The AC50 was over 30 µM.

Q: And the AC50 [5]?
A: The AC50 was over 30 µM.

Q: For `COc1ncnc(NS(=O)(=O)c2ccc(N)cc2)c1OC` [SULFADOXINE], which AC50 (Histamine H3 receptor) is on record?
A: The AC50 was over 30 µM.

Q: What about the AC50 [1] of the same molecule?
A: Its AC50 is over 30 µM.

Q: What about the AC50 [6] of the same molecule?
A: The AC50 was over 30 µM.

Q: What about the AC50 (D(1A) dopamine receptor) of the same molecule?
A: The AC50 was over 30 µM.

Q: What about the AC50 [2] of the same molecule?
A: Its AC50 is over 30 µM.

Q: And the AC50 [5]?
A: Its AC50 is over 30 µM.

Q: With `Cc1ccc(O)c([C@H](CCN(C(C)C)C(C)C)c2ccccc2)c1` [TOLTERODINE] as the molecule, how does the AC50 (Histamine H3 receptor) read?
A: Its AC50 is over 30 µM.

Q: What about the AC50 [1] of the same molecule?
A: The AC50 was over 30 µM.

Q: What about the AC50 [6] of the same molecule?
A: The AC50 was over 30 µM.

Q: What about the AC50 (D(1A) dopamine receptor) of the same molecule?
A: Its AC50 is over 30 µM.

Q: And the AC50 [2]?
A: The AC50 was over 30 µM.

Q: What about the AC50 [3] of the same molecule?
A: Its AC50 is over 30 µM.

Q: What about the AC50 [4] of the same molecule?
A: The AC50 was 0.0206 µM.

Q: What about the AC50 [5] of the same molecule?
A: The AC50 was over 30 µM.

Q: What does the source list for `COc1cc(C[C@@H]2NCCc3cc(O)c(O)cc32)cc(OC)c1OC` [TRETOQUINOL]?
A: AC50 (Histamine H3 receptor): > 30 µM; AC50 [1]: > 30 µM; AC50 (D(1A) dopamine receptor): 4.72 µM; AC50 [2]: 0.829 µM; AC50 [3]: > 30 µM; AC50 [4]: > 30 µM; AC50 [5]: > 30 µM
